From patent US11752219B2, “Substrate delivery of embedded liposomes” (NUtech Ventures, priority 2015, dated 2023)
≈ marks a conversion by molar mass, not a printed value.

What was measured:
[1] = tested on: MG; assay: DOX potency assay (MTT); assay type: cell-based, mouse; conditions: DOX concentration, 24-hour incubation
Experimental: (§1) Encapsulation of DOX into HALNPs Doxorubicin (DOX) was encapsulated inside the aqueous core of the HALNPs as described above and in Hayward et al, Sci. Rep. 2015, 5:14683. Briefly, a vial of lyophilized HALNPs (0.5 mg lipid) was brought to room temperature, and rehydrated with 1/10th its original pre-lyophilized volume of 0.05×PBS containing 250 μg DOX. Following a thirty minute incubation time to allow for lipid membrane re-assembly, the vial was brought back to its full pre-lyophilized volume with 1×PBS and ultracentrifuged to remove non-encapsulated DOX (140,000 g, 4° C., and 1.25 hr.). The auto-fluorescent property of DOX was then used to determine the entrapment payload. […]
(§2) To determine the effect of free DOX and HALNPDOX on the cell viability of Cort Astro, MG and A172 cells, an MTT assay was utilized as described herein to calculate the lethal concentration to kill 50% of the cells (see also, e.g., Hayward et al, Sci. Rep. 2015, 5:14683; Wilson et al, Nanoscale, 2015, 7:18477-18488; Natarajan et al, PLOS One, 2015, 10:e0134541). […] The cells were then lysed with acidified IPA and the absorbance of the produced formazan crystals was measured using a Beckman Coulter AD340 plate reader (Indianapolis, Ind., USA). Percent viability was determined by normalization of the 570/620 absorbance ratio to the control untreated cells and positive control dead cells (ethanol treated).

[2] = tested on: 21MT-1 metastatic breast cancer cells; assay: Doxorubicin potency assay (MTT); assay type: cell-based, human; conditions: DOX concentration, 24 hours
Experimental: The DOX concentration lethal to 50% of the 21MT-1 cells (LC50) was determined utilizing the MTT (3-(4,5-[…])2,5-diphenyl tetrazolium bromide) assay kit from Life Technologies (Carlsbad, Calif., USA). This colorimetric assay assesses cell health as a function of the mitochondrial conversion of MTT salt to Formazan. A two-step procedure was implemented for precise loading of DOX into the HALNPs and then into the HALNP-PEM platform.
First a solution of […] of DOX in 0.05×PBS was used to rehydrate a lyophilized vial of HALNPs and excess (un-encapsulated) DOX was removed using ultracentrifugation (140,000 g, 1.25 hrs, 4° C.). […] The initial vial of HALNPs (1 mg Total Lipid) concentration was known, thus both the total amount of encapsulated DOX and lipid were fully determined. […]
21MT-1 cells were seeded at a density of 32,000 cells/well in three 48 well plates with different DOX configurations: 1) PEM platform with embedded HALNPDOX [(PLL/SPS)4.5(HALNPDOX)(PLL/SPS)2.5], 2) Bolus form HALNPDOX, and 3) free non-encapsulated DOX. […] Cells were then lysed with lysis buffer (acidified IPA) and the absorbance was measured at 570 and 620 nm using a Beckman Coulter AD340 plate reader (Indianapolis, Ind., USA). Percent viability was determined by normalization of the 570/620 absorbance ratio to the control untreated cells and positive control dead cells.

[3] = tested on: A172; assay: DOX potency assay (MTT); assay type: cell-based; conditions: DOX concentration, 24-hour incubation
Experimental: as §1, §2

[4] = tested on: Cort Astro; assay: DOX potency assay (MTT); assay type: cell-based, rat; conditions: DOX concentration, 24-hour incubation
Experimental: as §1, §2

COc1cccc2c1C(=O)c1c(O)c3c(c(O)c1C2=O)C[C@@](O)(C(=O)CO)C[C@@H]3O[C@H]1C[C@H](N)[C@H](O)[C@H](C)O1 [Free DOX, doxorubicin]
LC50 values [1]: 0.267 ± 0.050 µg/mL (≈ 0.491 µM)
LC50 [2]: 0.191 ± 0.0301 µg/mL (≈ 0.351 µM)
LC50 values [3]: 0.193 ± 0.030 µg/mL (≈ 0.355 µM)
LC50 values [4]: 0.322 ± 0.053 µg/mL (≈ 0.592 µM)
